Where “and” joins values, the source holds several entries; their conditions need not be identical. Identical values can stand only once. Like-named read-outs stand apart in the source and are kept apart here.
Assays:
[1] = test system: LHGFR0N7C; assay: Influence of other compounds on the response of purified LHGFR0N7C to L-2-HG; assay type: binding, Pseudomonas putida W619; conditions: Suppl. Fig. 9b; L-2-HG alone or with the compound; three replicates
Description: (§1) Purified L-2-HG biosensors and different compounds were diluted by 50 mM Tris-HCl buffer (pH 7.4), mixed together in a black 96-well plate at a volume ratio of 3:1, and the fluorescence intensities were measured using an EnSight microplate reader (PerkinElmer, USA) with excitation at 430 nm, emission at 485 nm (mTFP) and 528 nm (Venus). […] The [L-2-HG], Kd, and p refer to the L-2-HG concentration, apparent dissociation constant, and Hill slope, respectively. Emission spectra were recorded at 430 nm excitation, in steps of 2 nm. Excitation spectra were recorded using emission at 550 nm, excitation from 380 to 535 nm in steps of 2 nm.

[2] = test system: LHGFR0N3C; assay: Specificity of purified LHGFR0N3C, emission ratio with 240 μM compounds; assay type: binding, Pseudomonas putida W619; conditions: 240 μM compound
Description: as §1

[3] = test system: LHGFR0N7C; assay: Specificity of purified LHGFR0N7C, emission ratio with 240 μM compounds; assay type: binding, Pseudomonas putida W619; conditions: 240 μM compound
Description: as §1

[4] = test system: LhgR; assay: EMSA, effect of compounds on LhgR binding to the lhgO promoter region F1; design: species or system Pseudomonas putida W619; conditions: 50 mM compound, 10 nM F1, 60 nM LhgR
Description: Electrophoretic mobility shift assays (EMSAs) were carried out using the DNA fragment (F1 or F2) and purified LhgR. The DNA fragments were first amplified by primer pairs F1-F/F1-R and F2-F/F2-R, respectively. Then, either fragment at a concentration of 10 nM DNA was incubated with LhgR (0–160 nM) in 20 μL EMSA binding buffer (10 mM Tris-HCl [pH 7.4], 50 mM KCl, 0.5 mM EDTA, 10% [vol/vol] glycerol, and 1 mM dithiothreitol [DTT]). The binding reactions were carried out at 30 °C for 30 min. Electrophoresis was performed on 6% native polyacrylamide gels at 4 °C and 170 V (constant voltage) for about 45 min, followed by staining with SYBR green I (TaKaRa, China) and photographing. Analysis of the interaction between lhgO promoter region (F1) and LHGFR was performed using the same procedure.
To characterize the effector of LhgR, purified LhgR was first incubated with L-lysine, 5-aminovalerate, glutarate, L-2-HG, D-2-HG, 2-KG, or succinate at 30 °C for 15 min, followed by incubation with the added DNA fragments at 30 °C for 30 min. The mixtures were subsequently subjected to electrophoresis.

[5] = test system: LHGFR0N3C; assay: Influence of other compounds on the response of purified LHGFR0N3C to L-2-HG; assay type: binding, Pseudomonas putida W619; conditions: Suppl. Fig. 9a; L-2-HG alone or with the compound; three replicates
Description: as §1

[6] = test system: P. putida KT2440; assay type: cell-based, Pseudomonas putida KT2440; conditions: Fig. 4j
Description: The bacterial strains used in this study are listed in Supplementary Data 1. E. coli and its derivatives were cultured in Luria–Bertani (LB) broth at 37 °C and 180 rpm. P. putida KT2440 and its derivatives were grown in minimal salt mediums (MSMs) containing different carbon sources at 30 °C and 200 rpm. Antibiotics were used at the following concentrations: tetracycline at 30 μg mL^−1; kanamycin at 50 μg mL^−1; ampicillin at 100 μg mL^−1; spectinomycin, at 50 μg mL^−1; and chloramphenicol at 40 μg mL^−1.

[7] = test system: P. putida KT2440; assay type: cell-based, Pseudomonas putida KT2440
[8] = test system: HEK293FT cells; assay: Hypoxia-induced L-2-HG production in LHGFR-expressing HEK293FT cells with or without 5 mM DMαKG; assay type: cell-based, human; conditions: for L-2-HG concentration: in µM
Description: HEK293FT cells were cultured in high-glucose Dulbecco’s modified eagle medium (DMEM) supplemented with 10% (vol/vol) fetal bovine serum (FBS), 100 units mL^−1 penicillin, and 100 μg mL^−1 streptomycin (all purchased from ThermoFisher, USA), and kept at 37 °C in humidified air containing 5% CO2. For hypoxia experiments, cells were kept in a compact O2 and CO2 subchamber controller (ProOx C21, BioSpherix, USA) at 2% O2, 5% CO2, and balanced with N2 for 24 h. For the construction of LHGFR expressing cell, HEK293FT cells were plated in 24-well plates so that they reached 70-90% confluency 24 h after plating, the medium was refreshed 2 h before transfection.
The preparation of cell suspensions and the measurement of emission ratios were performed using the same procedure. The background fluorescence was subtracted at each emission wavelength.

## O=C(O)CCC(=O)C(=O)O [2-KG, 2-ketoglutarate]
[1]
  Emission ratio: 2.436 and 2.603 and 2.441
[2]
  Emission ratio: 1.349 and 1.385 and 1.381
  Induction of emission ratio changes: None
[3]
  Emission ratio: 1.701 and 1.693 and 1.728
  Induction of emission ratio changes: None
[4]
  Effect on LhgR binding to the lhgO promoter region F1: observed only in the presence of L-2-HG
[5]
  Emission ratio: 2.007 and 2.049 and 2.099

## OC[C@H]1OC(O)[C@H](O)[C@@H](O)[C@@H]1O (some centres unmarked) [Glucose, glucose]
[6]; DlhgO, 0 h
  Growth: 0.077 and 0.079 and 0.073
[6]; DlhgO, 2 h
  Growth: 0.083 and 0.078 and 0.075
[6]; DlhgO, 4 h
  Growth: 0.24 and 0.208 and 0.228
[6]; DlhgO, 6 h
  Growth: 0.666 and 0.603 and 0.661
[6]; DlhgO, 8 h
  Growth: 1.5 and 1.401 and 1.461
[6]; DlhgO, 10 h
  Growth: 3.165 and 3.065
[6]; DlhgO, 12 h
  Growth: 3.835 and 3.65 and 3.86
[6]; DlhgO, 14 h
  Growth: 3.605 and 3.535 and 3.66
[6]; DlhgO, 16 h
  Growth: 3.66 and 3.5 and 3.7
[6]; WT, 0 h
  Growth: 0.077 and 0.08 and 0.081
[6]; WT, 2 h
  Growth: 0.079 and 0.092
[6]; WT, 4 h
  Growth: 0.25 and 0.292 and 0.281
[6]; WT, 6 h
  Growth: 0.635 and 0.605 and 0.701
[6]; WT, 8 h
  Growth: 1.404 and 1.446 and 1.5
[6]; WT, 10 h
  Growth: 2.675 and 2.785 and 2.9
[6]; WT, 12 h
  Growth: 3.11 and 3.205 and 3.1
[6]; WT, 14 h
  Growth: 3.13 and 3.115 and 3.035
[6]; WT, 16 h
  Growth: 3.015 and 3.115 and 3.15
[7]; DlhgO, 0 h, Fig. 4l
  Extracellular L-2-HG accumulation: 0.0018 and 0.00159 and 0.00178
[7]; DlhgO, 2 h, Fig. 4k
  Extracellular L-2-HG accumulation: 0.00214 and 0.00144 and 0.00151
[7]; DlhgO, 2 h, Fig. 4l
  Extracellular L-2-HG accumulation: 0.00161 and 0.00173 and 0.00155
[7]; DlhgO, 4 h, Fig. 4l
  Extracellular L-2-HG accumulation: 0.00126 and 0.00158 and 0.00143
[7]; DlhgO, 6 h, Fig. 4k
  Extracellular L-2-HG accumulation: 0.0027 and 0.00158 and 0.00192
[7]; DlhgO, 6 h, Fig. 4l
  Extracellular L-2-HG accumulation: 0.00592 and 0.00434 and 0.00414
[7]; DlhgO, 8 h, Fig. 4l
  Extracellular L-2-HG accumulation: 0.00588 and 0.0049 and 0.00675
[7]; DlhgO, 10 h, Fig. 4k
  Extracellular L-2-HG accumulation: 0.00624 and 0.00847 and 0.00636
[7]; DlhgO, 10 h, Fig. 4l
  Extracellular L-2-HG accumulation: 0.00724 and 0.00794 and 0.00631
[7]; DlhgO, 12 h, Fig. 4k
  Extracellular L-2-HG accumulation: 0.0023 and 0.00219 and 0.00146
[7]; DlhgO, 12 h, Fig. 4l
  Extracellular L-2-HG accumulation: 0.0051 and 0.00546 and 0.00628
[7]; DlhgO, 14 h, Fig. 4l
  Extracellular L-2-HG accumulation: 0.00618 and 0.0058 and 0.00573
[7]; DlhgO, 16 h, Fig. 4k
  Extracellular L-2-HG accumulation: 0.00357 and 0.00321 and 0.00356
[7]; DlhgO, 16 h, Fig. 4l
  Extracellular L-2-HG accumulation: 0.00553 and 0.0046 and 0.00552
[7]; WT, 0 h, Fig. 4k
  Extracellular L-2-HG accumulation: 6.56E-04 and 9.68E-04 and 7.73E-04
[7]; WT, 0 h, Fig. 4l
  Extracellular L-2-HG accumulation: 9.79E-04 and 0.00104 and 6.27E-04
[7]; WT, 2 h, Fig. 4k
  Extracellular L-2-HG accumulation: 1.95E-04 and 2.26E-04 and 1.15E-04
[7]; WT, 2 h, Fig. 4l
  Extracellular L-2-HG accumulation: 0.00114 and 7.97E-04 and 9.51E-04
[7]; WT, 4 h, Fig. 4l
  Extracellular L-2-HG accumulation: 5.39E-04 and 5.72E-04 and 5.29E-04
[7]; WT, 6 h, Fig. 4l
  Extracellular L-2-HG accumulation: 0.00521 and 0.00557 and 0.00468
[7]; WT, 8 h, Fig. 4k
  Extracellular L-2-HG accumulation: 0.00293 and 0.00233 and 0.00276
[7]; WT, 8 h, Fig. 4l
  Extracellular L-2-HG accumulation: 0.0081 and 0.00438 and 0.0052
[7]; WT, 10 h, Fig. 4l
  Extracellular L-2-HG accumulation: 0.00453 and 0.00483 and 0.00472
[7]; WT, 12 h, Fig. 4l
  Extracellular L-2-HG accumulation: 0.00448 and 0.00573 and 0.00522
[7]; WT, 14 h, Fig. 4k
  Extracellular L-2-HG accumulation: 0.00683 and 0.00582 and 0.00462
[7]; WT, 14 h, Fig. 4l
  Extracellular L-2-HG accumulation: 0.0046 and 0.00456 and 0.00492
[7]; WT, 16 h, Fig. 4k
  Extracellular L-2-HG accumulation: 0
[7]; WT, 16 h, Fig. 4l
  Extracellular L-2-HG accumulation: 0.00403 and 0.00579 and 0.0044

## COC(=O)CCC(=O)C(=O)OC [DMaKG]
[8]; 2% O2, With DMaKG, Supplementary Fig. 18e
  Normalized emission ratio: 1.018 and 0.9342 and 1.029 and 0.9552
[8]; 21% O2, With DMaKG, Supplementary Fig. 18e
  Normalized emission ratio: 1.029 and 0.993 and 1.008 and 0.9754
[8]; Fig. 6f, 2% O2, With DMaKG
  Normalized emission ratio: 1.196 and 1.188 and 1.187 and 1.206
  L-2-HG concentration: 547.911 and 427.301 and 412.83 and 794.44
[8]; Fig. 6f, 21% O2, With DMaKG
  Normalized emission ratio: 1.081 and 1.084 and 1.102 and 1.071
  L-2-HG concentration: 66.2807 and 68.36 and 87.5008 and 58.4114

## NCCCC[C@H](N)C(=O)O [L-Lysine, L-lysine]
[1]
  Emission ratio: 2.577 and 2.607 and 2.654
[2]
  Emission ratio: 1.377 and 1.382 and 1.394
  Induction of emission ratio changes: None
[3]
  Emission ratio: 1.692 and 1.701 and 1.71
  Induction of emission ratio changes: None
[4]
  Effect on LhgR binding to the lhgO promoter region F1: observed only in the presence of L-2-HG
[5]
  Emission ratio: 2.026 and 2.06 and 2.101

## NCCCCC(=O)O [5-Aminovalerate, 5-aminovalerate]
[1]
  Emission ratio: 2.625 and 2.696 and 2.709
[2]
  Emission ratio: 1.403 and 1.397 and 1.408
  Induction of emission ratio changes: None
[3]
  Emission ratio: 1.703 and 1.69 and 1.7015
  Induction of emission ratio changes: None
[4]
  Effect on LhgR binding to the lhgO promoter region F1: observed only in the presence of L-2-HG
[5]
  Emission ratio: 2.084 and 2.019 and 2.1

## O=C(O)CCC(=O)O [Succinate, succinate]
[1]
  Emission ratio: 2.581 and 2.619 and 2.616
[2]
  Emission ratio: 1.357 and 1.389 and 1.4025
  Induction of emission ratio changes: None
[3]
  Emission ratio: 1.718 and 1.724 and 1.726
  Induction of emission ratio changes: None
[4]
  Effect on LhgR binding to the lhgO promoter region F1: observed only in the presence of L-2-HG
[5]
  Emission ratio: 2.013 and 2.0132 and 2.099

Reference: paper PMC8206213, “An L-2-hydroxyglutarate biosensor based on specific transcriptional regulator LhgR” (Nature Communications, 2021)
